Experimental findings from US10336701B2, “Pyridin-2-one derivatives of formula (II) useful as EP3 receptor antagonists” (Janssen Pharmaceutica NV, priority 2017, dated 2019) are described below.

Experiment [1] has as its target T1, EP3 receptor (Homo sapiens, UniProt P43115).
T1 construct: purchased Millipore HTS092M
T1 sequence (P43115 1-390): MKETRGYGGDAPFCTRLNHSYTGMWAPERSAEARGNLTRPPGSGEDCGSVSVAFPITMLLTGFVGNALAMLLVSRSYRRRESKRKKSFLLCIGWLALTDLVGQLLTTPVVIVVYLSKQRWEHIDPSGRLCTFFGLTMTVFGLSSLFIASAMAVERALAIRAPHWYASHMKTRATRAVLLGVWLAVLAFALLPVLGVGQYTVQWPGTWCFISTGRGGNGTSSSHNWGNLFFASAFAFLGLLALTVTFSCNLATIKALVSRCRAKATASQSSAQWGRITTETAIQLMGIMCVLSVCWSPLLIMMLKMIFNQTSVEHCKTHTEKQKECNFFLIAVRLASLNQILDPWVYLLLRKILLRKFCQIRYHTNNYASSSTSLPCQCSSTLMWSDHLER
The experiment in a line: CHO cell cAMP assay (forskolin and sulprostone stimulated, HTRF). The format is cell-based. The following applies: CHO cells; sulprostone 700 nM (EC80) and FSK 2 μM (EC70), 37° C. for 30 minutes; read-out: CHO_cAMP IC50. Background: Cyclic AMP is a second messenger, typically raised through Gs and lowered through Gi signalling.

Experiment [2] addresses T1, EP3 receptor. The experiment in a line: [3H]-PGE2 binding assay (EP3 competition binding). The following applies: read-out: [3H]-PGE2 Binding Ki. The method, boiled down:
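Scintillation-bead competition binding with EP3 membranes (2 μg/well), 2 nM [3H]-PGE2, 0.1% DMSO, in 50 mM Tris, 10 mM MgCl2, 1 mM EDTA, pH 7.4.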

The IC50 is the concentration needed to halve the response being measured. The term Ki denotes the equilibrium dissociation constant of an inhibitor or competing ligand from its target.

Turning to `CC(C)C1(c2ccc(-c3ccc4cccc(F)c4c3)[nH]c2=O)NC(=S)NC1=O` (stereo not drawn) [compound 294, 6-(8-fluoronaphthalen-2-yl)-3-(4-isopropyl-5-oxo-2-thioxoimidazolidin-4-yl)pyridin-2(1H)-one], at EP3 receptor [1], the IC50 is 56 nM. For the same molecule, the Ki on EP3 receptor [2] was determined as 6 nM.
On the same counts, the results for `CC1(c2ccc(-c3ccc4ccccc4c3)[nH]c2=O)C(=O)Nc2nncn21` (stereo not drawn) [compound 152, 3-[5-methyl-6-oxo-5H, 6H, 7H-imidazo[2,1-c][1,2,4]triazol-5-yl]-6-(naphthalen-2-yl)-1,2-dihydropyridin-2-one] are 2140 nM and 428 nM.
On the same counts, the results for `CC(C)C(C(=O)NCCN(C)C)c1ccc(-c2ccc3cc(F)ccc3c2)[nH]c1=O` (stereo not drawn) [compound 242, N-(2-(dimethylamino)ethyl)-2-(6-(6-fluoronaphthalen-2-yl)-2-oxo-1,2-dihydropyridin-3-yl)-3-methylbutanamide] are 3960 nM and 398 nM.
`CCN1C(=O)COc2c(F)cc(-c3ccc(C(CN4CCS(=O)(=O)CC4)C(C)C)c(=O)[nH]3)cc21` (stereo not drawn) [Compound #128, 4-{2-[6-(4-ethyl-8-fluoro-3-oxo-2H-1,4-benzoxazin-6-yl)-2-oxo-1H-pyridin-3-yl]-3-methylbutyl},4-thiomorpholine-1,1-dione]: at EP3 receptor [1], the IC50 came out at 18000 nM. Besides, the Ki on EP3 receptor [2] was 154 nM.
In the case of `CCN1CCOc2c(F)cc(-c3ccc(C(CN4CCS(=O)(=O)CC4)C(C)C)c(=O)[nH]3)cc21` (stereo not drawn) [Compound #129, 4-{2-[6-(4-ethyl-8-fluoro-2,3-dihydro-1,4-benzoxazin-6-yl)-2-oxo-1H-pyridin-3-yl]-3-methylbutyl}-1,4-thiomorpholine-1,1-dione], the IC50 at EP3 receptor [1] worked out at 149 nM. Moreover, the Ki at EP3 receptor [2] turned out to be 6 nM.
The matching figures for `CCn1cc2c(C)cc(-c3ccc(C(CC4OC(=O)NC4=O)C(C)C)c(=O)[nH]3)cc2n1` (stereo not drawn) [compound 86, 5-(2-(6-(2-ethyl-4-methyl-2H-indazol-6-yl)-2-oxo-1,2-dihydropyridin-3-yl)-3-methylbutyl)oxazolidine-2,4-dione]: 916 nM and 114 nM.
On the same counts, the results for `CC(C)C(c1ccc(-c2ccc3cccc(F)c3c2)[nH]c1=O)N(C)C(N)=O` (stereo not drawn) [compound 265, 1-(1-(6-(8-fluoronaphthalen-2-yl)-2-oxo-1,2-dihydropyridin-3-yl)-2-methylpropyl)-1-methylurea] are 249 nM and 34 nM.
On the same counts, the results for `CC(C)/C(=C1\OC(=O)NC1=O)c1ccc(-c2ccc3cccc(F)c3c2)[nH]c1=O` [compound 304, (E)-5-(1-(6-(8-fluoronaphthalen-2-yl)-2-oxo-1,2-dihydropyridin-3-yl)-2-methylpropylidene)oxazolidine-2,4-dione] are 680 nM and 270 nM.
Take `CN(C)C1=NC(C)(c2ccc(-c3ccc4ccccc4c3)[nH]c2=O)CN1` (stereo not drawn) [compound 289, 3-[2-(dimethylamino)-4-methyl-4,5-dihydro-1H-imidazol-4-yl]-6-(naphthalen-2-yl)-1,2-dihydropyridin-2-one]: the IC50 on EP3 receptor [1] was greater than 20000 nM. Also, the Ki at EP3 receptor [2] came out at 1800 nM.
On the same counts, the results for `O=C1NC(=O)/C(=C/C(c2ccc(-c3ccc4cccc(F)c4c3)[nH]c2=O)C2CCCC2)O1` (stereo not drawn) [compound 92, (Z)-5-(2-cyclopentyl-2-(6-(8-fluoronaphthalen-2-yl)-2-oxo-1,2-dihydropyridin-3-yl)ethylidene)oxazolidine-2,4-dione] are 7 nM and 9 nM.
The matching figures for `CCn1ncc2c(F)cc(-c3ccc(C(CC)(CC)CC4OC(=O)NC4=O)c(=O)[nH]3)cc21` (stereo not drawn) [compound 56, 5-(2-ethyl-2-(6-(1-ethyl-4-fluoro-1H-indazol-6-yl)-2-oxo-1,2-dihydropyridin-3-yl)butyl)oxazolidine-2,4-dione]: 230 nM and 20 nM.
On the same counts, the results for `CC(C)(CC1OC(=O)NC1=O)c1ccc(-c2ccc3cccc(F)c3c2)[nH]c1=O` (stereo not drawn) [compound 1, 5-(2-(6-(8-fluoronaphthalen-2-yl)-2-oxo-1,2-dihydropyridin-3-yl)-2-methylpropyl) oxazolidine-2,4-dione] are 88 nM and 39 nM.
On to `CC(C)C(CC(=O)NS(C)(=O)=O)c1ccc(-c2ccc3ccccc3c2)[nH]c1=O` (stereo not drawn) [compound 250, 4-methyl-N-(methylsulfonyl)-3-(6-(naphthalen-2-yl)-2-oxo-1,2-dihydropyridin-3-yl)pentanamide], for which the IC50 on EP3 receptor [1] came out at 931 nM. Further, the Ki on EP3 receptor [2] was 69 nM.
`CC(C)C(Cc1ccc(-c2ccc3cccc(F)c3c2)[nH]c1=O)c1nnn[nH]1` (stereo not drawn) [compound 270, 6-(8-Fluoronaphthalen-2-yl)-3-(3-methyl-2-(1H-tetrazol-5-yl)butyl)pyridin-2(1H)-one]: at EP3 receptor [1], the IC50 was determined as 540 nM. The Ki on EP3 receptor [2] was determined as 164 nM.
The matching figures for `CCn1ncc2c(F)cc(-c3ccc(C(CC)(CC)c4ncc[nH]4)c(=O)[nH]3)cc21` [compound 31, 6-(1-ethyl-4-fluoro-indazol-6-yl)-3-[1-ethyl-1-(1H-imidazol-2-yl)propyl]-1H-pyridin-2-one]: 482 nM and 37 nM.
On the same counts, the results for `CCn1ncc2c(F)cc(-c3ccc(C4(O)CN(S(=O)(=O)C(C)C)C4)c(=O)[nH]3)cc21` [compound 298, 6-(1-ethyl-4-fluoro-1H-indazol-6-yl)-3-(3-hydroxy-1-(isopropylsulfonyl)azetidin-3-yl)pyridin-2(1H)-one] are 8300 nM and 979 nM.
On the same counts, the results for `CC(C)C(CC(=O)NCCO)c1ccc(-c2ccc3cccc(F)c3c2)[nH]c1=O` (stereo not drawn) [compound 258, 3-(6-(8-fluoronaphthalen-2-yl)-2-oxo-1,2-dihydropyridin-3-yl)-N-(2-hydroxyethyl)-4-methyl pentanamide] are 136 nM and 8 nM.
For `CC(C)S(=O)(=O)N1CCC(c2ccc(-c3ccc4cc(F)ccc4c3)[nH]c2=O)CC1` [compound 199, 6-(6-fluoronaphthalen-2-yl)-3-(1-(isopropylsulfonyl)piperidin-4-yl)pyridin-2(1H)-one], the IC50 at EP3 receptor [1] was greater than 20000 nM. Moreover, the Ki on EP3 receptor [2] was greater than 10000 nM.
With `CCn1ncc2c(F)cc(-c3ccc(C(CN4CCN(S(C)(=O)=O)CC4)C(C)C)c(=O)[nH]3)cc21` (stereo not drawn) [Compound #109, 6-(1-ethyl-4-fluoro-1H-indazol-6-yl)-3-(3-methyl-1-(4-(methylsulfonyl)piperazin-1-yl)butan-2-yl)pyridin-2(1H)-one], the IC50 on EP3 receptor [1] turned out to be 115 nM. The Ki on EP3 receptor [2] worked out at 27 nM.
For the molecule `CC(C)C1(c2ccc(-c3ccc4cccc(F)c4c3)[nH]c2=O)N=C(NC#N)NC1=O` (stereo not drawn) [compound 236, N-(4-(6-(8-fluoronaphthalen-2-yl)-2-oxo-1,2-dihydropyridin-3-yl)-4-isopropyl-5-oxo-4,5-dihydro-1H-imidazol-2-yl)cyanamide], the IC50 at EP3 receptor [1] was determined as 6 nM. The Ki at EP3 receptor [2] worked out at 2 nM.
On the same counts, the results for `CC(C)C(c1nnn[nH]1)c1ccc(-c2ccc3ccccc3c2)[nH]c1=O` (stereo not drawn) [compound 61, 3-(2-Methyl-1-(1H-tetrazol-5-yl)propyl)-6-(naphthalen-2-yl)pyridin-2(1H)-one] are 376 nM and 43 nM.
On the same counts, the results for `CCN1CCOc2ccc(-c3ccc(C(C(C)C)N4CCSCC4)c(=O)[nH]3)cc21` (stereo not drawn) [Compound #164, 6-(4-ethyl-3,4-dihydro-2H-benzo[b][1,4]oxazin-6-yl)-3-(2-methyl-1-thiomorpholinopropyl)pyridin-2(1H)-one] are 485 nM and 26 nM.
The matching figures for `CC(C)C(CC(=O)Nc1nccs1)c1ccc(-c2ccc3cccc(F)c3c2)[nH]c1=O` (stereo not drawn) [compound 254, 3-(6-(8-fluoronaphthalen-2-yl)-2-oxo-1,2-dihydropyridin-3-yl)-4-methyl-N-(thiazol-2-yl)pentanamide]: 2740 nM and 344 nM.
With `CC(C)C(F)(C(N)=O)c1ccc(-c2ccc3ccccc3c2)[nH]c1=O` (stereo not drawn) [compound 217, 2-fluoro-3-methyl-2-(6-(naphthalen-2-yl)-2-oxo-1,2-dihydropyridin-3-yl)butanamide], the IC50 at EP3 receptor [1] was determined as 1140 nM. The Ki on EP3 receptor [2] was found to be 49 nM.
The matching figures for `CC1(c2ccc(-c3ccc4ccccc4c3)[nH]c2=O)CNC(NS(C)(=O)=O)=N1` (stereo not drawn) [compound 290, N-[4-methyl-4-[6-(naphthalen-2-yl)-2-oxo-1,2-dihydropyridin-3-yl]-4,5-dihydro-1H-imidazol-2-yl]methanesulfonamide]: 1910 nM and 116 nM.
On to `CC1(c2ccc(-c3ccc4ccccc4c3)[nH]c2=O)N=CNC1=O` (stereo not drawn) [compound 222, 3-(4-methyl-5-oxo-4,5-dihydro-1H-imidazol-4-yl)-6-(naphthalen-2-yl)-1,2-dihydropyridin-2-one], for which the IC50 at EP3 receptor [1] amounted to 4270 nM. The Ki on EP3 receptor [2] worked out at 327 nM.
The matching figures for `CC(C)C(C(=O)NCCN(C)C)c1ccc(-c2ccc3ncsc3c2)[nH]c1=O` (stereo not drawn) [compound 246, 2-(6-(benzo[d]thiazol-6-yl)-2-oxo-1,2-dihydropyridin-3-yl)-N-(2-(dimethylamino)ethyl)-3-methylbutanamide]: 17000 nM and greater than 10000 nM.
